From patent publication US5318980A, “Sulphonylbenzyl-substituted imidazoles” (Bayer Aktiengesellschaft, priority 1992, dated 1994) come the findings set out here.

In general, IC50 refers to the midpoint of a concentration-inhibition curve. One may read the Ki as the dissociation constant of the complex between target and ligand, obtained from inhibition or displacement. A word on the % inhibition: it is the percentage by which the read-out fell short of the control. The low end stands for little suppression, the high end for strong suppression.

For one experiment, the system named is isolated aortic rings of rabbits, contraction induced by AII. Description: Inhibition of angiotensin II-induced contraction on isolated aortic rings of rabbits in vitro. Format: cell-based, rabbit. To be noted: Oryctolagus cuniculus, 3rd=submaximum agonist concentration, read-out: IC50 against contractions induced by AII. Here is the method:
Rabbits of both sexes are stunned by a blow to the neck and exsanguinated or, where appropriate, anaesthetised with Nembutal (about 60-80 mg/kg i.v.) and sacrificed by opening the thorax. The thoracic aorta is removed, freed from attached connective tissue and divided into ring segments 1.5 mm wide, and the segments are introduced individually, under an initial load of about 3.5 g, into 10 ml organ baths containing carbogen-gassed KrebsHenseleit nutrient solution thermostatically controlled at 37° C. and having the following composition: 119 mmol/l of NaCl; 2.5 mmol/l of CaCl2 ×2 H2 O; 1.2 mmol/l to KH2 PO4; 10 mmol/l of glucose; 4.8 mmol/l of KCl; 1.4 mmol/l of MgSO4 ×7 H2 O and 25 mmol/l of NaHCO3.
The contractions are recorded isometrically by Statham UC2 cells via a bridge amplifier (ifd Mulheim or DSM Aalen), and are digitalised and evaluated by means of an A/D converter (system 570, Keithley Munich). The agonist dose/effect curves (DEC) are plotted hourly. For each DEC, 3 or 4 individual concentrations are applied to the baths at intervals of 4 minutes. The DEC and subsequent wash-out cycles (16 times for about 5 sec/min each with the above nutrient solution) are followed by a 28-minute resting or incubation phase, within which the contractions as a rule reach the starting value again.
The level of the 3rd DEC in the normal case is used as a reference parameter for evaluating the test substance which is to be investigated in subsequent passes and, for the subsequent DECs, is applied to the baths at the start of the incubation time in a dosage which increases each time. Each aortic ring is stimulated with always the same agonist over the entire day.
Agonists and their standard concentrations (application
The effect in each case at the 3rd=submaximum agonist concentration is taken as a basis for calculation of the IC50 (concentration at which the substance to be investigated causes 50% inhibition).
Regarding `CCCCc1nc(Cl)c(C(=O)O)n1Cc1ccc(S(=O)(=O)N2CCC[C@H]2C(=O)O)cc1` [Example 15], the IC50 came to 202 nM.

For the molecule `CCCCc1nc(Cl)c(C(=O)O)n1Cc1ccc(S(=O)(=O)N2CCCCC2C(=O)O)cc1Cl` (stereo not drawn) [Example 16], the IC50 came to 309 nM.

Turning to `CCCCc1nc(Cl)c(CO)n1Cc1ccc(S(=O)(=O)N2CCC[C@H]2C(=O)O)cc1Cl` [Example 19], the IC50 was determined as 44 nM.

As for `CCCCc1nc(Cl)c(CO)n1Cc1ccc(S(=O)(=O)N2CCC[C@H]2C(=O)O)cc1` [Example 21], the IC50 came to 250 nM.

As to `CCCCc1nc(Cl)c(C(=O)O)n1Cc1ccc(S(=O)(=O)N2CCCCC2C(=O)O)cc1` (stereo not drawn) [Example 25], the IC50 is 5 nM.

Another experiment has as its target T1, Angiotensin II receptor (Bos taurus, UniProt P25104).
T1 construct: carried out on partly purified membrane fractions of bovine AC with radioactive angiotensin II; from tissue; host or cells: bovine adrenal cortex, freed from medulla, partly purified membrane fractions
T1 sequence (P25104 1-359): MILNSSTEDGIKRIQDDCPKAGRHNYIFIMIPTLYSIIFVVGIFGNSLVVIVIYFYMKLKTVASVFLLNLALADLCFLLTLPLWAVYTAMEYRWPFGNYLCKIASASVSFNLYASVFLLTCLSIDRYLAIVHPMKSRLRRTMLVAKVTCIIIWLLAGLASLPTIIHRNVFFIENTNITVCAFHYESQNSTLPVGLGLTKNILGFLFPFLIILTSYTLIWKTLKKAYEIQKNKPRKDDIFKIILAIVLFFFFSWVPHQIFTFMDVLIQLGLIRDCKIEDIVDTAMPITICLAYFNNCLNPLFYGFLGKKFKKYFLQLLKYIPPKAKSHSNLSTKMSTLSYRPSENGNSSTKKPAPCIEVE
The experiment is described as follows: Interaction with the angiotensin II receptor on membrane fractions of the adrenal cortex (cattle), 3H-angiotensin II bonding. Format: binding. The following applies: bovine adrenal cortex membranes; 3H-angiotensin II (3-5 nM); 60 minutes at room temperature. Here is the method: Adrenal cortices from cattle (AC), which are freshly removed and carefully freed from medulla from the capsule, are comminuted to a coarse membrane homogenate in sucrose solution (0.32M) with the aid of an Ultra-Turrax (Janke & Kunkel, Staufen i.B.), and the homogenate is partly purified to membrane fractions in two centrifugation steps.
The investigations on receptor bonding are carried out on partly purified membrane fractions of bovine AC with radioactive angiotensin II in an assay volume of 0.25 ml, which specifically contains the partly purified membranes (50-80 μg), ^3 H-angiotensin II (3-5 nM), test buffer solution (50 mM Tris, pH 7.2), 5 mM MgCl2 and the substances to be investigated. After an incubation time of 60 minutes at room temperature, the non-bonded radioactivity of the samples is separated off by means of moistened glass fibre filters (Whatman GF/C), and, after the protein has been washed with ice-cold buffer solution (50 mM Tris/HCl, pH 7.4, 5% PEG 6000), the radioactivity bonded is measured […] in a scintillation cocktail. The raw data were analysed with computer programs to give Ki and IC50 values (Ki : IC50 values corrected for the radioactivity used; IC50 values: concentration at which the substance to be investigated causes 50% inhibition of specific bonding of the radioligand).
Molecule `CCCCc1nc(Cl)c(C(=O)O)n1Cc1ccc(S(=O)(=O)N2CCC[C@H]2C(=O)O)cc1` [Example 15] returned a Ki of 400 nM.

The molecule `CCCCc1nc(Cl)c(C(=O)O)n1Cc1ccc(S(=O)(=O)N2CCCCC2C(=O)OC(C)(C)C)cc1Cl` (stereo not drawn) [Example 18] showed a Ki of 200 nM.

Another experiment concerns smooth muscle cells. The experiment is described as follows: Inhibition of the proliferation of smooth muscle cells (3H-thymidine incorporation). Format: cell-based, rats or pigs. The following applies: at 10^-6 M (so in the source); growth stimulated with AII, serum or other factors. Here is the method:
Smooth muscle cells which are obtained from the aortas of rats or pigs by the media explantate technique are used to determine the antiproliferative action of the compounds [R. Ross, J. Cell. Biol. 50, 172, 1971]. The cells are sown in suitable culture dishes, as a rule 24-hole plates, and cultured for 2-3 days in medium 199 containing 7.5% of FCS and 7.5% of NCS, 2 mM of L-glutamine and 15 mM of HEPES, pH 7.4, in 5% CO2 at 37° C. Thereafter, the cells are synchronised by serum withdrawal for 2-3 days and then stimulated to growth with AII, serum or other factors. Test compounds are added at the same time. After 16-20 hours, 1 μCi of ^3 H-thymidine is added, and after a further 4 hours, the incorporation of this substance into the TCA-precipitatable DNA of the cells is determined.
(In general: Uptake of a labelled nucleoside into DNA is a usual measure of proliferation.)
With `CCCCc1nc(Cl)c(CO)n1Cc1ccc(S(=O)(=O)N2CCCCC2)cc1` [Example 11], the “% inhibition at 10^6 M” value is reported as 20%.

Consider `CCCCc1nc(Cl)c(CO)n1Cc1ccc(S(=O)(=O)N2CCC[C@H]2C(=O)OC(C)(C)C)cc1Cl` [Example 12], for which the “% inhibition at 10^6 M” value is listed as 70%.
